Usually IC50 stands for the concentration that gives 50% inhibition. A lower IC50 goes with greater potency.

Here are results for 10 compounds from patent US8415351B2 (priority 2007, dated 2013).

Structures are written as SMILES. Counter-ions that a name gives are not always drawn.

Experiment [1] concerns the target T1, HCV polymerase 1B (Δ21 NS5B, BK) (Hepatitis C virus genotype 1b, UniProt P26663).
T1 construct: 20 to 50 nM Δ21 NS5B
The experiment is described as follows: biochemical. The method, then:
(§1) HCV Polymerase Inhibition Assay
(§2) Either two-fold serial dilutions (fractional inhibition assay) or a narrower range of dilutions spanning the IC50 of the inhibitor (tight binding assay) of the inhibitors were incubated with 20 mM Tris-Cl pH 7.4, 2 mM MnCl2, 1 mM dithiothreitol, 1 mM ethylene diamine tetraacetic acid (EDTA), 60 to 125 μM GTP and 20 to 50 nM Δ21 NS5B (HCV Strain 1B (BK, Genbank accession number M58335, or H77, Genbank accession number AF011751)) for 15 min at room temperature. The reaction was initiated by the addition of 20 μM CTP, 20 μM ATP, 1 μM ^3H-UTP (10 mCi/umol), 5 nM template RNA and 0.1 U/μl RNase inhibitor (RNasin, Promega), and allowed to proceed for 2 to 4 h at room temperature. Reaction volume was 50 μl. The reaction was terminated by the addition of 1 volume of 4 mM spermine in 10 mM Tris-Cl pH 8.0, 1 mM EDTA. After incubation for at least 15 min at room temperature, the precipitated RNA was captured by filtering through a GF/B filter (Millipore) in a 96 well format. The filter plate was washed three times with 200 μl each of 2 mM spermine, 10 mM Tris-Cl pH 8.0, 1 mM EDTA, and 2 times with ethanol. After air-drying, 30 μl of Microscint 20 scintillation cocktail (Packard) was added to each well, and the retained cpm were determined by scintillation counting. […] Retained cpm were plotted vs. inhibitor concentration and fit to equation 1 using non-linear regression (ref. 1) to obtain the IC50 values: Retained cpm=A[sqrt{(IC50+It−Et)^2+4*IC50*Et}−(IC50+It−Et)]
Ref. Morrison, J. F. and S. R. Stone. 1985. Approaches to the study and analysis of the inhibition of enzymes by slow- and tight-binding inhibitors. Comments Mol. Cell. Biophys. 2: 347-368.
The sequence of the template RNA used was: 5′-[…] […] […] […] […] […] […] […] […] […] […] […] […] […] […] […] […]-3′ (SEQ ID NO: 1)

For experiment [2], the target named is T2, HCV polymerase 1A (Δ21 NS5B, H77) (Hepatitis C virus genotype 1a, UniProt P27958).
T2 construct: 20 to 50 nM Δ21 NS5B
The experiment is described as follows: biochemical. As to conditions: IC50 1a. On the procedure: as §1
as §2, with “The” for “Either two-fold serial dilutions (fractional inhibition assay) or a narrower range of dilutions spanning the IC50 of the inhibitor (tight binding assay) of the inhibitors were incubated with 20 mM Tris-Cl pH 7.4, 2 mM MnCl2, 1 mM dithiothreitol, 1 mM ethylene diamine tetraacetic acid (EDTA), 60 to 125 μM GTP and 20 to 50 nM Δ21 NS5B (HCV Strain 1B (BK, Genbank accession number M58335, or H77, Genbank accession number AF011751)) for 15 min at room temperature. The”
Ref. Morrison, J. F. and S. R. Stone. […] Approaches to the study and analysis of the inhibition of enzymes by slow- and tight-binding inhibitors. Comments Mol. Cell. Biophys.
The sequence of the template RNA used was: 5′-[…]

T2 sequence (P27958 2421-2990, stated change not applied): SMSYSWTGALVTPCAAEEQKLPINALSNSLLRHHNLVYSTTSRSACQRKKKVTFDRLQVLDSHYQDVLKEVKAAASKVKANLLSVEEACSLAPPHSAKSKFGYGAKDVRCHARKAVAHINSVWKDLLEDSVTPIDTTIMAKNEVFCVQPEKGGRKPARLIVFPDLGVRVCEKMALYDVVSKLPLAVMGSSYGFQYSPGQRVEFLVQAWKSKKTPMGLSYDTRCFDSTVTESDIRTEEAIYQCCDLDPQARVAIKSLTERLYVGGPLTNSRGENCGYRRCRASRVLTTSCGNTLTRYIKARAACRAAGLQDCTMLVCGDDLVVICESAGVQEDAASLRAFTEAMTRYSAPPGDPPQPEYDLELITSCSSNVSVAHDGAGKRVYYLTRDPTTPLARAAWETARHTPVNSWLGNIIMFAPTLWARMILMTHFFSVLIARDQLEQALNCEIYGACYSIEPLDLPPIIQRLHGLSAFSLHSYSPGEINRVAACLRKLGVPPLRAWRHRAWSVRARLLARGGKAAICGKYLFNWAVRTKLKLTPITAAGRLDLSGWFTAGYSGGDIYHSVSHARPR
T1 sequence (P26663 2420-2989, stated change not applied): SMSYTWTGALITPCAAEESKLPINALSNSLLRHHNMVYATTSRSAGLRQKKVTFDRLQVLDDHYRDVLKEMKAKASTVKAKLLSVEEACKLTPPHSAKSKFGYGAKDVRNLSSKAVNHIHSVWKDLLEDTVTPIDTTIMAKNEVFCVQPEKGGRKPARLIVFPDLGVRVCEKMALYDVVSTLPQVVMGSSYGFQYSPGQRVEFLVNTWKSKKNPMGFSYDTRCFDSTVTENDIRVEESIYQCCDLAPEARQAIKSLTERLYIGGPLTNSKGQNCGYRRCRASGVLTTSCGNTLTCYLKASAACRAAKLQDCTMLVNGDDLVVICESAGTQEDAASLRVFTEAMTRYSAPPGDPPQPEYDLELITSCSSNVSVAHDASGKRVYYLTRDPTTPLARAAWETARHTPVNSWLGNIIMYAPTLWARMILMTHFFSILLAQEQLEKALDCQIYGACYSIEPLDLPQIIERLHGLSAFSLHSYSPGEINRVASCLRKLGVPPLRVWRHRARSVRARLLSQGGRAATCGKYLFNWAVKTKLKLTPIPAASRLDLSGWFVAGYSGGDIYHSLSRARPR

Turning to `CC(C)(C)c1cc(N2CCC(=O)NC2=O)cc(CN2CCCc3cc(NS(C)(=O)=O)ccc32)c1O` [IA-L5-1-2.2, N-(1-(3-tert-butyl-5-(2,4-dioxotetrahydropyrimidin-1(2H)-yl)-2-hydroxybenzyl)-1,2,3,4-tetrahydroquinolin-6-yl)methanesulfonamide], the IC50 in experiment [1] and in experiment [2] was more than 1 µM each time.

With `CCCC(=O)OCN1C(=O)CCN(c2cc(C(=O)Nc3ccc(N(COC(=O)CCC)S(C)(=O)=O)cc3)c(OC)c(C(C)(C)C)c2)C1=O` [IA-L3-1.88, (N-(4-(3-tert-butyl-5-(3-(butyryloxymethyl)-2,4-dioxotetrahydropyrimidin-1(2H)-yl)-2-methoxybenzamido)phenyl)methylsulfonamido)methyl butyrate], the IC50 in experiment [1] and in experiment [2] was more than 1 µM in each case.

As for `COC(=O)C1CCN(Cc2cc(N3CCC(=O)NC3=O)cc(C(C)(C)C)c2O)CC1` [IA-L5-1-1.5, 1-[3-tert-butyl-5-(2,4-dioxo-tetrahydro-pyrimidin-1-yl)-2-hydroxy-benzyl]-piperidine-4-carboxylic acid methyl ester], the IC50 in experiment [1] and in experiment [2] was more than 1 µM in each case.

Consider `CCOC(=O)N(c1ccc(NC(=O)c2cc(N3CCC(=O)NC3=O)cc(C(C)(C)C)c2OC)cc1)S(C)(=O)=O` [IA-L3-1.74, Ethyl 4-(3-tert-butyl-5-(2,4-dioxotetrahydropyrimidin-1(2H)-yl)-2-methoxybenzamido)-phenyl(methylsulfonyl)carbamate], for which the IC50 in experiment [1] and in experiment [2] was more than 1 µM each time.

On to `COc1c(-c2ncc(-c3ccc([N+](=O)[O-])cc3)o2)cc(N2CCC(=O)NC2=O)cc1C(C)(C)C` [IA-L0-1.11, 1-(3-tert-butyl-4-methoxy-5-(5-(4-nitrophenyl)oxazol-2-yl)phenyl)dihydropyrimidine-2,4(1H,3H)-dione], for which the IC50 in experiment [1] and in experiment [2] was more than 1 µM each time.

In the case of `CC(C)(C)OC(=O)N1CCN(Cc2cc(N3CCC(=O)NC3=O)cc(C(C)(C)C)c2O)CC1` [IA-L5-1-1.10, 4-[3-tert-butyl-5-(2,4-dioxo-tetrahydro-pyrimidin-1-yl)-2-hydroxy-benzyl]-piperazine-1-carboxylic acid tert-butyl ester], the IC50 in experiment [1] and in experiment [2] was more than 1 µM in each case.

For `C=CCN1C(=O)CCN(c2cc(C(=O)Nc3ccc(N(CC=C)S(C)(=O)=O)cc3)c(OC)c(C(C)(C)C)c2)C1=O` [IA-L3-1.118, 5-(3-allyl-2,4-dioxotetrahydropyrimidin-1(2H)-yl)-N-(4-(N-allylmethylsulfonamido)phenyl)-3-tert-butyl-2-methoxybenzamide], the half-inhibitory concentration (IC50) in experiment [1] and in experiment [2] was more than 1 µM each time.

For the compound `CC(C)(C)c1cc(N2CCC(=O)NC2=O)cc(CN2CCCC(C(N)=O)C2)c1O` (centres unmarked) [IA-L5-1-1.8, 1-[3-tert-butyl-5-(2,4-dioxo-tetrahydro-pyrimidin-1-yl)-2-hydroxy-benzyl]-piperidine-3-carboxylic acid amide, trifluoroacetic acid salt], the IC50 in experiment [1] and in experiment [2] was more than 1 µM in each case.

`COc1c(C(=O)Nc2ccc(N(C)S(C)(=O)=O)cc2)cc(N2CCC(=O)N(C)C2=O)cc1C(C)(C)C` [IA-L3-1.25, 3-tert-butyl-N-[4-(methanesulfonyl-methyl-amino)-phenyl]-2-methoxy-5-(3-methyl-2,4-dioxo-tetrahydro-pyrimidin-1-yl)-benzamide]: the 50% inhibitory concentration (IC50) in experiment [1] and in experiment [2] was more than 1 µM each time.

On to `CC(C)(C)c1cc(N2CCC(=O)NC2=O)cc(NC(=O)c2ccc(N)cc2)c1O` [IA-L4-1.6, 4-amino-N-(3-tert-butyl-5-(2,4-dioxotetrahydropyrimidin-1(2H)-yl)-2-hydroxyphenyl)benzamide], for which the IC50 in experiment [1] and in experiment [2] was more than 1 µM throughout.
